From US20090047244A1, “MACROCYCLIC SERINE PROTEASE INHIBITORS I” (Idenix Pharmaceuticals, Inc., priority 2007, published 2009)
Where two headings read alike, the source gives them in different places.

Conditions: rcm bond

`CCOC(=O)[C@@]12C[C@H]1C=CCCCCN(C)C(=O)N[C@@H](CO[Si](C)(C)C(C)(C)C)C(=O)N2` showed a ring closure, yield of all isomers (from C=CCCCCN(C)C(=O)N[C@@H](CO[Si](C)(C)C(C)(C)C)C(=O)N[C@]1(C(=O)OCC)C[C@H]1C=C, Hoveyda-Grubbs 1st generation, 1,2-dichloroethane, 9.9 mM, 70.0 °C, 16.0 h) of 48.1%.

In the case of `CCOC(=O)[C@@]12C[C@H]1/C=C\CCCCN(C)C(=O)N[C@@H](CCO[Si](C)(C)C(C)(C)C)C(=O)N2`, the ring closure, yield of all isomers (from C=CCCCCN(C)C(=O)N[C@@H](CCO[Si](C)(C)C(C)(C)C)C(=O)N[C@]1(C(=O)OCC)C[C@H]1C=C, Hoveyda-Grubbs 1st generation, DCM, 1.96 mM, 40.0 °C, 24.0 h) is reported as 50%.

In the case of `CCOC(=O)[C@@]12C[C@H]1C=CCCCCCN(C)C(=O)N[C@@H](CCOc1cc(-c3ccccc3)nc3cc(OC)ccc13)C(=O)N2`, the ring closure, yield of all isomers (from C=CCCCCCN(C)C(=O)N[C@@H](CCOc1cc(-c2ccccc2)nc2cc(OC)ccc12)C(=O)N[C@]1(C(=O)OCC)C[C@H]1C=C, Hoveyda-Grubbs 1st generation, DCM, 1.6 mM, 40.0 °C, 16.0 h) is reported as 64%.

For `CCOC(=O)[C@@]12C[C@H]1C=CCCCCN(C)C(=O)N[C@@H](CCOc1cc(-c3ccccc3)nc3cc(OC)ccc13)C(=O)N2`, the ring closure, yield of all isomers (from C=CCCCCN(C)C(=O)N[C@@H](CCOc1cc(-c2ccccc2)nc2cc(OC)ccc12)C(=O)N[C@]1(C(=O)OCC)C[C@H]1C=C, Hoveyda-Grubbs 1st generation, DCM, 1.6 mM, 40.0 °C, 16.0 h) was 22%.

In the case of `COc1ccc2c(OCC[C@@H]3NC(=O)N(C)CCCCC=C[C@@H]4C[C@@]4(C(=O)NS(=O)(=O)C4CC4)NC3=O)cc(-c3ccccc3)nc2c1`, the ring closure, yield of all isomers (from C=CCCCCN(C)C(=O)N[C@@H](CCOc1cc(-c2ccccc2)nc2cc(OC)ccc12)C(=O)N[C@]1(C(=O)NS(=O)(=O)C2CC2)C[C@H]1C=C, Hoveyda-Grubbs 2nd generation, DCM, 1.5 mM, 100.0 °C, 1.0 h) is reported as 7.9%.
